Measurements taken from patent publication US10548313B2, “Acetyl-CoA carboxylase modulators” (Monsanto Technology LLC, priority 2013, dated 2020).
Values joined by “and” are separate entries in the source; they are usually repeats but may differ in a detail not shown here. Equal values may be shown once. Read-outs that look alike come from different tables or passages of the source.

Molecular target: Ustilago maydis acetyl CoA carboxylase (ACCase) (Mycosarcoma maydis (Ustilago maydis), UniProt A0A0D1DYD5)
Sequence (A0A0D1DYD5 1-2185): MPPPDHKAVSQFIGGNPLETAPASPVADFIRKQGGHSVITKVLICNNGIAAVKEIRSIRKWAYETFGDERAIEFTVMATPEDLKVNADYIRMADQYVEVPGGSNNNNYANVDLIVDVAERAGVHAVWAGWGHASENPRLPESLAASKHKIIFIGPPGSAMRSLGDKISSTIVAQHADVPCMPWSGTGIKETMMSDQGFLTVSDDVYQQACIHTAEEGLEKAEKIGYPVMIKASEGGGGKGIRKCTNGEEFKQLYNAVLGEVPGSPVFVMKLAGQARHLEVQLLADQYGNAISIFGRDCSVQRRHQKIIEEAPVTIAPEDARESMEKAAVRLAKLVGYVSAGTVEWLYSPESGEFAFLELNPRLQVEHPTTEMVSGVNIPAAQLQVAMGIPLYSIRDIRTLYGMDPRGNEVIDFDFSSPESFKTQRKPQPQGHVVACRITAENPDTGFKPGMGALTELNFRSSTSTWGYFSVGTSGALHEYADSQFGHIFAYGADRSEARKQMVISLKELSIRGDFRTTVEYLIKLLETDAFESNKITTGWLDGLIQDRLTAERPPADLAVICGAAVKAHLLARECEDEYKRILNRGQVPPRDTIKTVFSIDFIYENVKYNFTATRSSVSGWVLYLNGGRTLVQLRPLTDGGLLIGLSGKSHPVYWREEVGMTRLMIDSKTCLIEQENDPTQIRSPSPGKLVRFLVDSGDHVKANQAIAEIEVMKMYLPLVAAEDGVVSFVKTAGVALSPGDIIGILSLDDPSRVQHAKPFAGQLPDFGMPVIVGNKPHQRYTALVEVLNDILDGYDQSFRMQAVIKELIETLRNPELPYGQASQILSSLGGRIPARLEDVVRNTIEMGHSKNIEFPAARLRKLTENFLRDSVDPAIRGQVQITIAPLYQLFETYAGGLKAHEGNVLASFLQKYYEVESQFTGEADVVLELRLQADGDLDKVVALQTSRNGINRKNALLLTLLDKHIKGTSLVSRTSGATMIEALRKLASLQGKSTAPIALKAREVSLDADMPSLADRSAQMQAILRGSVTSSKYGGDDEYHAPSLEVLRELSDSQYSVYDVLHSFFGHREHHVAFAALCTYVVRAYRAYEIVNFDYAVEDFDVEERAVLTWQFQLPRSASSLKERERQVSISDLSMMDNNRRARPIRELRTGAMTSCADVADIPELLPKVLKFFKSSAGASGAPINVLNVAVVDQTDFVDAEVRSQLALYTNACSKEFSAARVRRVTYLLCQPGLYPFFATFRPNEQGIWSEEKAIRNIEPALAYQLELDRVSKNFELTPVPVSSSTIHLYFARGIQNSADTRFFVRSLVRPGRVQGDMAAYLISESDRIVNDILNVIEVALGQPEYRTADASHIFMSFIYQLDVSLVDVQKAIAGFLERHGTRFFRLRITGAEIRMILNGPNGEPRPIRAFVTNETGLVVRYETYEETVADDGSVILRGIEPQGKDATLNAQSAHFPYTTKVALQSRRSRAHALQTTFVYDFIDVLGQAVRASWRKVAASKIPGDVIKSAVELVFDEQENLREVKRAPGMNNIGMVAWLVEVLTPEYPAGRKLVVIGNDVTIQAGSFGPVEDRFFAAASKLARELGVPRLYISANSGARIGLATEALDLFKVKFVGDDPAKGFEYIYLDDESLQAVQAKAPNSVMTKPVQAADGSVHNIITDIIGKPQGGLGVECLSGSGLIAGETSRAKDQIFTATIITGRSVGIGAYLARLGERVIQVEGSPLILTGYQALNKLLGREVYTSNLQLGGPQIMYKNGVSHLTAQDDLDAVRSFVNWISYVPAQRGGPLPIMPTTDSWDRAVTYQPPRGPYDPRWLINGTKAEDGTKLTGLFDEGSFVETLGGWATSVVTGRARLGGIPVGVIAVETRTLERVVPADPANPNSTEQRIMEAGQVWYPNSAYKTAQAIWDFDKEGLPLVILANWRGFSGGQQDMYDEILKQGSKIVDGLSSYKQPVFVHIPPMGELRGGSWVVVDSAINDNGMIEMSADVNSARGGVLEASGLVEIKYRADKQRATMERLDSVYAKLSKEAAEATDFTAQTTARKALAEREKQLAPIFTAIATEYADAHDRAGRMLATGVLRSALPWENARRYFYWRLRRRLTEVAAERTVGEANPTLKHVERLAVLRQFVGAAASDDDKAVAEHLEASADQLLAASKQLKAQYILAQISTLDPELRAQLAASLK
Test: ACCase enzymatic assay (coupled PK/LDH, NADH OD340)
Assay type: biochemical
Procedure: Ustilago maydis acetyl CoA carboxylase (ACCase) was cloned, expressed, and purified as described (Weatherly et al, Biochem. J., 2004) and the test compounds were tested in a 96-well plate format. Primary in vitro screening consisted of obtaining dose response data at 100, 33, 10, and 1 μM inhibitor. Actives in the primary screen were re-tested to establish IC50 values.
Direct detection of the conversion of acetyl CoA to malonyl CoA by ACCase was not feasible, but during this process ATP is converted to ADP which allowed for detection through a standard reaction coupling with ADP recycling to the oxidation of NADH. Thus, ACCase activity was measured via kinetic OD340 measurements of the conversion of NADH to NAD in a coupled reaction involving the conversion of phosphoenolpyruvate (PEP) to lactate.
The complete 200 ul reaction mixture contained 52.5 mM HEPES (pH8), 2.625 mM MgCl2, 1 mM ATP, 0.525 mM DTT, 11 mM NaHCO3, 1% DMSO with or without inhibitor, 1× pyruvate kinase/lactate dehydrogenase (PK/LDH), 0.3 mM NADH, 0.5 mM PEP, and 5 μg ACCase. The reactions were incubated at 30° C. for 10 minutes and then initiated by the addition of 0.33 mM acetyl CoA. The initiated reactions were read immediately via plate reader at OD340 and kinetic readings were acquired every 20 s for 15 minutes while keeping the temperature at 30° C.
A slope of the kinetic curve was determined by using the 2 to 7 minute data which was then calculated as percent inhibition relative to the no inhibitor control.
The primary screens were conducted in duplicate and the IC50's conducted in triplicate. Averages were reported along with standard deviation calculation to generate error bars.
Each plate contained its own controls and consisted of a DMSO only control, 5-fold titration series of soraphen from 2 μM to 3.2 nM, and an ADP coupled reaction control.

[1] = Table 1A, values marked a are a result of two or more experiments, read-out: ACCase Inhibitory Activity IC50
[2] = Table 1B, racemate vs single enantiomers, read-out: ACCase Inhibitory Activity of Racemic Mixtures and Single Enantiomers IC50

N#Cc1c(SC(C(=O)O)c2ccccc2)nc2c(c1-c1ccccc1)CCCC2 (stereo not shown) [Formula Ia-xvii, 2-((3-cyano-4-phenyl-5,6,7,8-tetrahydroquinolin-2-yl)thio)-2-phenylacetic acid]
IC50 [1]: 906 nM

N#Cc1c(-c2cccs2)cc(-c2ccco2)nc1SC(C(=O)O)c1ccccc1 (stereo not shown) [Formula Ia-xxiv, 2-((3-cyano-6-(furan-2-yl)-4-(thiophen-2-yl)pyridin-2-yl)thio)-2-phenylacetic acid]
IC50 [1]: 958 nM

N#Cc1c(-c2cccs2)cc(-c2cccs2)nc1SC(C(=O)O)c1ccccc1 (single isomer, unassigned) [Formula Ia-iii-e2, 2-((3-cyano-4,6-di(thiophen-2-yl)pyridin-2-yl)thio)-2-phenylacetic acid]
IC50 [2]: 2390 nM

2-((3-cyano-4-(thiophen-2-yl)-5,6,7,8-tetrahydroquinolin-2-yl)oxy)-2-phenylacetic acid [Formula Ia-xxvii]
IC50 [1]: 249 nM

COc1ccc(-c2cc(-c3cccs3)nc(SC(C(=O)O)c3ccccc3)c2C#N)cc1 (single isomer, unassigned) [Formula Ia-xiv-e2, 2-((3-cyano-4-(4-methoxyphenyl)-6-(thiophen-2-yl)pyridin-2-yl)thio)-2-phenylacetic acid]
IC50 [2]: 440 nM and 523 nM

N#Cc1c(-c2ccco2)cc(-c2cccs2)nc1SC(CO)c1ccccc1 (stereo not shown) [Formula IIb-iv, 4-(furan-2-yl)-2-((2-hydroxy-1-phenylethyl)thio)-6-(thiophen-2-yl)nicotinonitrile]
IC50 [1]: 2180 nM

N#Cc1c(-c2ccco2)cc(-c2ccco2)nc1SC(C(=O)O)c1ccccc1 (stereo not shown) [Formula Ia-xxv, 2-((3-cyano-4,6-di(furan-2-yl)pyridin-2-yl)thio)-2-phenylacetic acid]
IC50 [1]: 4040 nM

Cc1cc(C(F)(F)F)c(C#N)c(SC(C(=O)O)c2ccccc2)n1 (stereo not shown) [Formula Ia-xvi, 2-((3-cyano-6-methyl-4-(trifluoromethyl)pyridin-2-yl)thio)-2-phenylacetic acid]
IC50 [1]: 7730 nM

COc1ccc(-c2cc(-c3cccs3)nc(SC(CO)c3ccccc3)c2C#N)cc1 (stereo not shown) [Formula IIb-i, 2-((2-hydroxy-1-phenylethyl)thio)-4-(4-methoxyphenyl)-6-(thiophen-2-yl)nicotinonitrile]
IC50 [1]: 625 nM

COc1ccc(-c2c(C#N)c(SC(C(=O)O)c3ccccc3)nc3c2CCCC3)cc1 (stereo not shown) [Formula Ia-xxvi, 2-((3-cyano-4-(4-methoxyphenyl)-5,6,7,8-tetrahydroquinolin-2-yl)thio)-2-phenylacetic acid]
IC50 [1]: 560 nM

COc1ccc(-c2cc(-c3cccs3)nc(SC(C(=O)NO)c3ccccc3)c2C#N)cc1 (stereo not shown) [Formula Ib-iii, 2-((3-cyano-4-(4-methoxyphenyl)-6-(thiophen-2-yl)pyridin-2-yl)thio)-N-hydroxy-2-phenylacetamide]
IC50 [1]: 882 nM

N#Cc1c(C(F)(F)F)cc(-c2cccs2)nc1SC(C(=O)O)c1ccccc1 (single isomer, unassigned) [Formula Ia-ii-e1, 2-((3-cyano-6-(thiophen-2-yl)-4-(trifluoromethyl)-pyridin-2-yl)thio)-2-phenylacetic acid]
IC50 [2]: 12900 nM

CO[C@H]1CCCC[C@@H](c2ccccc2)OC(=O)[C@@H](C)[C@@]2(O)O[C@H]([C@@H](C)[C@H](O)[C@H]2OC)[C@@H](C)/C=C/[C@H]1OC [Soraphen, reference compound]
IC50 [1]: 45.8 nM

N#Cc1c(-c2ccc(F)cc2)cc(-c2cccs2)nc1SC(C(=O)O)c1ccccc1 (stereo not shown) [Formula Ia-xxii, 2-((3-cyano-4-(4-fluorophenyl)-6-(thiophen-2-yl)pyridin-2-yl)thio)-2-phenylacetic acid]
IC50 [1]: 563 nM

N#Cc1c(SC(C(N)=O)c2ccccc2)nc2c(c1-c1cccs1)CCCC2 (stereo not shown) [Formula Ib-i, 2-((3-cyano-4-(thiophen-2-yl)-5,6,7,8-tetrahydroquinolin-2-yl)thio)-2-phenylacetamide]
IC50 [1]: 712 nM

COc1ccc(-c2cc(SC(C(=O)O)c3ccccc3)nc(-c3cccs3)c2)cc1 (stereo not shown) [Formula Ia-xix, 2-((4-(4-methoxyphenyl)-6-(thiophen-2-yl)pyridin-2-yl)thio)-2-phenylacetic acid]
IC50 [1]: 9060 nM

N#Cc1c(SC(CO)c2ccccc2)nc2c(c1-c1cccs1)CCCC2 (stereo not shown) [Formula IIb-ii, 2-((2-hydroxy-1-phenylethyl)thio)-4-(thiophen-2-yl)-5,6,7,8-tetrahydroquinoline-3-carbonitrile]
IC50 [1]: 4090 nM

CN1CCCc2c1nc(SC(C(=O)O)c1ccccc1)c(C#N)c2-c1cccs1 (stereo not shown) [Formula Ia-vi, 2-((3-cyano-8-methyl-4-(thiophen-2-yl)-5,6,7,8-tetrahydro-1,8-naphthyridin-2-yl)thio)-2-phenylacetic acid]
IC50 [1]: 3550 nM

CCC(Sc1nc(-c2cccs2)cc(-c2ccc(OC)cc2)c1C#N)C(=O)O (stereo not shown) [Formula Ia-xxix, 2-((3-cyano-4-(4-methoxyphenyl)-6-(thiophen-2-yl)pyridin-2-yl)thio)butanoic acid]
IC50 [1]: 113 nM

N#Cc1c(-c2cccs2)cc(-c2cccs2)nc1SC(C(=O)O)c1ccccc1 (single isomer, unassigned) [Formula Ia-iii-e1, 2-((3-cyano-4,6-di(thiophen-2-yl)pyridin-2-yl)thio)-2-phenylacetic acid]
IC50 [2]: 547 nM

COc1ccc(-c2cc(-c3ccco3)nc(SC(C(=O)O)c3ccccc3)c2C#N)cc1 (stereo not shown) [Formula Ia-xx, 2-((3-cyano-6-(furan-2-yl)-4-(4-methoxyphenyl)pyridin-2-yl)thio)-2-phenylacetic acid]
IC50 [1]: 345 nM

Cc1ccc(-c2cc(-c3cccs3)nc(SC(C(=O)O)c3ccccc3)c2C#N)cc1 (stereo not shown) [Formula Ia-xxi, 2-((3-cyano-6-(thiophen-2-yl)-4-(p-tolyl)pyridin-2-yl)thio)-2-phenylacetic acid]
IC50 [1]: 353 nM

N#Cc1c(-c2ccc(Br)cc2)cc(-c2cccs2)nc1SC(C(=O)O)c1ccccc1 (stereo not shown) [Formula Ia-xxiii, 2-((4-(4-bromophenyl)-3-cyano-6-(thiophen-2-yl)pyridin-2-yl)thio)-2-phenylacetic acid]
IC50 [1]: 212 nM

COc1ccc(-c2cc(-c3cccs3)nc(SC(C(=O)O)c3ccccc3)c2C#N)cc1 (single isomer, unassigned) [Formula Ia-xiv-e1, 2-((3-cyano-4-(4-methoxyphenyl)-6-(thiophen-2-yl)pyridin-2-yl)thio)-2-phenylacetic acid]
IC50 [2]: 115 nM and 129 nM

COc1ccc(-c2cc(-c3cccs3)nc(SC(C(N)=O)c3ccccc3)c2C#N)cc1 (stereo not shown) [Formula Ib-ii, 2-((3-cyano-4-(4-methoxyphenyl)-6-(thiophen-2-yl)pyridin-2-yl)thio)-2-phenylacetamide]
IC50 [1]: > 33000 nM
